# Laboratory results as given in ChEMBL document CHEMBL1201862, “PubChem BioAssay data set” (2004).
# Calls of active or inactive are those of the source.
# Legend:
# [1] = target: T1, High affinity choline transporter 1 (Homo sapiens, UniProt Q9GZV3); assay: human choline transporter blockers, potency – cell-based, 5-point CRC, membrane potential dye, dose response (AID 504840); type: functional
# T1 sequence (Q9GZV3 whole entry): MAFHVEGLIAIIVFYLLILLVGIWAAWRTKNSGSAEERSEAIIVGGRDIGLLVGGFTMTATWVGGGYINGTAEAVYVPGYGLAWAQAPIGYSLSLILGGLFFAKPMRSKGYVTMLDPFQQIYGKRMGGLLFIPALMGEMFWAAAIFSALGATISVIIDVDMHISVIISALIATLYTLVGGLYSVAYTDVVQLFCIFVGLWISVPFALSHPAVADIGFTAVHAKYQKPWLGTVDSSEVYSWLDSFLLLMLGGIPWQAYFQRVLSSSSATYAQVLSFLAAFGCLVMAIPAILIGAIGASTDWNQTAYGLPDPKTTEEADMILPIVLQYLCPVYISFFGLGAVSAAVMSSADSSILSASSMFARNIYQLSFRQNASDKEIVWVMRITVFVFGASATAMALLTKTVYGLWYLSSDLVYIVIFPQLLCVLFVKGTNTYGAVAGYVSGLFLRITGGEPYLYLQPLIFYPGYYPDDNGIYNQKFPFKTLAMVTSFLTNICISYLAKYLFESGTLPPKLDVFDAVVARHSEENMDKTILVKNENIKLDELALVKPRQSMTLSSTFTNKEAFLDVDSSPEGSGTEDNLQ
# [2] = target: Induced myeloid leukemia cell differentiation protein Mcl-1 (Homo sapiens, UniProt Q07820); type: functional
# [3] = target: T2, Calpain-2 catalytic subunit (Sus scrofa, UniProt P43367); assay: m-calpain protease blockers, concentration series – biochemical, fluorogenic peptide substrate, dose response (AID 1420); type: functional
# T2 sequence (P43367 whole entry): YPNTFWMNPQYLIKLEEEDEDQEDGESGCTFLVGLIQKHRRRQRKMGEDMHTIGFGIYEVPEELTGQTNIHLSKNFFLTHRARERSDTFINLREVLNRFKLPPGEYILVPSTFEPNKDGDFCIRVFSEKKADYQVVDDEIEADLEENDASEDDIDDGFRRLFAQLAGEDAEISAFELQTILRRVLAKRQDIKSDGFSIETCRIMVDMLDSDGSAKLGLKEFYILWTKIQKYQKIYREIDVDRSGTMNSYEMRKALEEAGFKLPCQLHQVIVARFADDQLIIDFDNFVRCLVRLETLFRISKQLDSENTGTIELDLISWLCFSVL
# [4] = system: INS1; assay: INS-1E survival protection against cytokine death – cell-based, luminescence, retest, dose response (AID 449756); type: functional; settings: Rattus norvegicus;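 also: cell death triggered by IL-1 beta plus TNF-alpha plus IFN-gamma mixture; protective hits raise ATP signal compared with cytokine alone wells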
# [5] = system: P388; assay: cells; type: functional; settings: Mus musculus
# [6] = system: BJ; assay: BJ-TERT-LT-ST fibroblast viability loss – cell-based, RAS-independent, luminescence, dose response (AID 1935); type: functional; settings: Homo sapiens;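 also: BJ fibroblasts immortalized with TERT plus LT and ST oncogenes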
# [7] = system: BJ; assay: BJ-TERT fibroblast viability loss – cell-based, RAS-independent, luminescence, dose response (AID 1933); type: functional; settings: Homo sapiens
# [8] = DRD fibroblast viability loss – cell-based, non-viral oncogenic, luminescence, dose response (AID 1934); type: functional; settings: Homo sapiens
# [9] = system: SN12K1; assay: cells; type: functional; settings: Homo sapiens
# [10] = system: BJ; assay: cells; type: functional, cell-based; settings: Homo sapiens
# [11] = system: P388/ADR; assay: cells; type: functional; settings: Mus musculus
# [12] = target: T3, Short transient receptor potential channel 4 (Mus musculus, UniProt Q9QUQ5); assay: calcium entry via TRPC4 opening agents – cell-based, HEK293 TRPC4/mu-opioid, Fluo-4 calcium, dose response (AID 434937); type: functional
# T3 sequence (Q9QUQ5 whole entry): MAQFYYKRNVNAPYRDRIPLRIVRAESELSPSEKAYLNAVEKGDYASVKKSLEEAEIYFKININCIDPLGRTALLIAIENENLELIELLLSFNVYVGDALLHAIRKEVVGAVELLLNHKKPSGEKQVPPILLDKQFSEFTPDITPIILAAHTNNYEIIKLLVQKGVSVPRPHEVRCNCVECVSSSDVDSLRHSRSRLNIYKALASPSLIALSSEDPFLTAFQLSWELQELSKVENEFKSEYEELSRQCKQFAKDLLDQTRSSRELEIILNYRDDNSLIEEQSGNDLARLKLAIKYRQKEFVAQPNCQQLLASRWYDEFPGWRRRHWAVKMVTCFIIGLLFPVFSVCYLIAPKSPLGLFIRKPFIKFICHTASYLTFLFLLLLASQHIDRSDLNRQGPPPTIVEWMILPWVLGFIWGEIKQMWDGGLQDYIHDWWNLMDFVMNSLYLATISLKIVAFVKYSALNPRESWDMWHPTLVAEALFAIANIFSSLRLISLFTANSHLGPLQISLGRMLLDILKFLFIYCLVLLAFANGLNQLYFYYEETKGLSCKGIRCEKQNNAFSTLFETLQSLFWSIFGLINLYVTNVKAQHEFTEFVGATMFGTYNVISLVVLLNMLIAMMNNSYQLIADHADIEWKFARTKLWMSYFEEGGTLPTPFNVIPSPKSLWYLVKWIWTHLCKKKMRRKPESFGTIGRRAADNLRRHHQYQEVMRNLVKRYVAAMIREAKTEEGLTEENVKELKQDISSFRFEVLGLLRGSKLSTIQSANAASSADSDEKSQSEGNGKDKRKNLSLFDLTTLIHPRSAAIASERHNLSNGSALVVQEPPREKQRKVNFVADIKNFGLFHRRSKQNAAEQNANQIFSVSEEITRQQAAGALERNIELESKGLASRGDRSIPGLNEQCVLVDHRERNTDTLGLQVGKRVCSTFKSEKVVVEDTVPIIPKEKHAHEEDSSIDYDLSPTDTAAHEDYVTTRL
# [13] = cells; type: functional, cell-based
# [14] = cells; type: functional, cell-based; remark: listed apart in the source
# [15] = blockers of HIV-1 envelope-mediated cell-cell fusion – cherry-pick, dose response (AID 652057); type: functional, cell-based
# [16] = HIV-1 AD8 envelope cell-cell fusion blockers – cherry-pick, dose response (AID 652062); type: functional, cell-based;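 also: luciferase signal from cell-cell fusion driven by HIV-1 clade B AD8 Env; potency is for inhibitors of fusion seen as a drop in luminescence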
# [17] = Luminescence Cell-Based Dose Retest to Confirm Inhibitors of Cancer Stem Cells. [Related pubchem assays (depositor defined):AID2717, AID2721]; type: functional; settings: Homo sapiens
# [18] = system: BJ; assay: growth inhibition of engineered Ras-driven BJ cells – cell-based, alamar blue fluorescence, cherrypicked samples, dose response (AID 2631); type: functional; settings: Homo sapiens;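 also: confirmatory dose-response assay in RAS-dependent BJ fibroblasts engineered with TERT, LT and ST, with cytotoxicity read by fluorescence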
# [19] = target: Cytochrome P450 2C9 (Homo sapiens, UniProt P11712)
# [20] = non-specific 3'UTR reporter inhibition in Clone20-Shn3RL – cell-based, Renilla luciferase, cherry-picked, counter-screen for Shn3 inhibitor project, dose response (AID 624133); type: functional
# [21] = reduction of Shn3 3'UTR-driven luciferase in osteoblasts – cell-based, Clone20 osteoblasts, firefly luciferase, cherry-picked, dose response (AID 624132); type: functional;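 also: firefly luciferase luminescence from reporter carrying the Shn3 3'UTR in osteoblasts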
# [22] = intracellular Trypanosoma cruzi inhibitors in host cells – cell-based, plate reader, cherry-pick samples, set 3, dose response (AID 651818); type: functional;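 also: compounds incubated with infected cells for about four days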
# [23] = system: Streptococcus sp. 'group A'; assay: Streptococcus pyogenes SK(-)GAS viability under kanamycin – luminescence, BacTiterGlo, confirmation, counter-screen for streptokinase expression inhibitor project, dose response (AID 1900); type: functional, organism-based
# [24] = system: Streptococcus; assay: GAS UMAA2166 growth inhibition – luminescence, BacTiterGlo, counter-screen for streptokinase expression inhibitor project, dose response (AID 1915); type: functional, organism-based;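 also: potency for reduction of bacterial viability or growth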
# Induced myeloid leukemia cell differentiation protein Mcl-1, sequence (Q07820 whole entry): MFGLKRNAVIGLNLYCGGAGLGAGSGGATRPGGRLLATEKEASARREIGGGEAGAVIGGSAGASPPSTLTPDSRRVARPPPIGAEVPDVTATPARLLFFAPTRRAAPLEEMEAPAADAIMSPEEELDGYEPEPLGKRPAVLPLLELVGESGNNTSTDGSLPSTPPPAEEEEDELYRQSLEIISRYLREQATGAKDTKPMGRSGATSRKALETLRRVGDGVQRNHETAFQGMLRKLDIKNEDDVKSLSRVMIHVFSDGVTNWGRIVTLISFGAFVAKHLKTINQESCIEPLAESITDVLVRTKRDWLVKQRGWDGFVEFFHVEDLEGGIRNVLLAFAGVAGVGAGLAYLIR
# Cytochrome P450 2C9, sequence (P11712 whole entry): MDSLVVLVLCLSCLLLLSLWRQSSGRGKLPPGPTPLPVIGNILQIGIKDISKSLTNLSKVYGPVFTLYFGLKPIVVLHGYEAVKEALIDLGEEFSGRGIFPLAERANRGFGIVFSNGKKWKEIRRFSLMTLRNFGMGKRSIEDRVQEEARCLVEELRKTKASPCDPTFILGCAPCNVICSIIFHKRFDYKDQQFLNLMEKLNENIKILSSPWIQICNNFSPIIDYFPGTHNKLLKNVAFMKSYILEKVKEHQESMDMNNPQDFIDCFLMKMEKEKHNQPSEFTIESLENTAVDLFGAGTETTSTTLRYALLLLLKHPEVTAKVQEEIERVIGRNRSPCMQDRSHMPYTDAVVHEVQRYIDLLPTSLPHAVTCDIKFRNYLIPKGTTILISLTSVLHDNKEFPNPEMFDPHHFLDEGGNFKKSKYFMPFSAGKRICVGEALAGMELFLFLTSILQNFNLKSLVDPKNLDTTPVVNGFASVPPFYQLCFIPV
smiles,measurement,setting,value
O=C(Nc1nc2ccc(S(=O)(=O)N3CCCCC3)cc2s1)c1cccnc1,IC50,[1],13.2 µM (active)
Cc1ccc(CNC(=O)c2ccc3c(=O)[nH]c4c(C(=O)NCC5CCCO5)sc(=S)n4c3c2)cc1 (configuration not stated),IC50,[2],6.74 µM (active)
same,IC50,[3],5.68 µM (active)
CC1(C)N=C(N)N=C(N)N1c1ccc(OCCCOc2ccccc2)c(Cl)c1,AC50,[4],5.88 µM (active)
same,GI50,[5],< 10 nM (active)
same,EC50,[6],> 150 µM (not active)
same,EC50,[7],23.8 µM (active)
same,EC50,[8],0.174 µM (inconclusive)
same,GI50,[9],28.9 nM (active)
same,EC50,[10],< 0.12 µM (active)
same,GI50,[11],1.39 µM (inactive)
O=C(Nc1ccc(N2CCCC2)cc1)c1ccc(Br)o1,IC50,[2],0.932 µM (active)
O=C1NC(=S)S/C1=C\c1coc2ccccc2c1=O,IC50,[1],14.5 µM (active)
O=C1OC(c2ccc([N+](=O)[O-])cc2)=N/C1=C/N1CC2CC(C1)c1cccc(=O)n1C2 (configuration not stated),EC50,[12],10600 nM (active)
COc1ccc(-c2nc3ccc(C(=O)NCCCN4CCOCC4)cc3nc2-c2ccc(OC)cc2)cc1,IC50,[1],13.2 µM (active)
NN=C(S)NCCc1ccccc1,EC50,[13],> 29.9 µM (inactive)
same,IC50,[14],> 29.9 µM (inactive)
NC(=O)CC(NC(=O)Cc1ccc(Cl)cc1)c1ccc(NCCc2ccccc2F)c([N+](=O)[O-])c1 (configuration not stated),EC50,[13],> 29.9 µM (inactive)
same,IC50,[14],> 29.9 µM (inactive)
Clc1ccc(-c2noc(CSc3nnc(-c4ccncc4)n3-c3ccccc3)n2)cc1,AC50,[15],25 µM (active)
same,AC50,[16],4.51 µM (active)
CCC(NCCc1c[nH]c2ccccc12)=C1C(=O)N(C)C(=O)N(C)C1=O,AC50,[16],17.6 µM (active)
COc1ccccc1/C=C1\SC(=S)N(CCC(=O)NCCCn2ccnc2)C1=O,AC50,[17],6.05 µM (active)
same,EC50,[6],> 75 µM (inconclusive)
same,EC50,[7],> 150 µM (not active)
same,EC50,[18],> 133 µM (inactive)
same,EC50,[8],> 150 µM (not active)
same,EC50,[10],> 150 µM (not active)
Cc1ccc2c(c1)C1CN(C)CCC1N2C(=O)Nc1cccc(Cl)c1 (configuration not stated),IC50,[2],8.64 µM (not active)
same,AC50,[19],39.8 µM (inconclusive)
O=[N+]([O-])c1cc(C(F)(F)F)ccc1N1CCCNCC1,EC50,[12],841 nM (active)
Cc1cc(C)n2nc(SCc3cccc(S(=O)(=O)N(C)C)c3)nc2n1,AC50,[20],8.55 µM (active)
same,AC50,[21],14 µM (active)
O=C(CCN1C(=O)/C(=C\c2cccc(Br)c2)SC1=S)NCCCN1CCOCC1,EC50,[6],> 150 µM (not active)
same,EC50,[7],1.4 µM (inconclusive)
same,EC50,[18],> 66.7 µM (inactive)
same,EC50,[8],4.75 µM (active)
same,EC50,[10],93.6 µM (inconclusive)
CN(CC(=O)Nc1ccccc1Cl)C(=O)CCNC(=O)Nc1ccccc1,EC50,[13],> 29.9 µM (inactive)
same,IC50,[14],> 29.9 µM (inactive)
CN1CCN(C(=O)c2cccn(Cc3c(Cl)cccc3Cl)c2=O)CC1,EC50,[12],668 nM (active)
CN(C)C(CNC(=O)Cc1c(Cl)cccc1Cl)c1ccccc1 (configuration not stated),EC50,[12],376 nM (active)
CN1CCN(S(=O)(=O)c2cccc(C(=O)Nc3ccc(Br)cc3Br)c2)CC1,IC50,[1],12.6 µM (active)
C[C@]12CC[C@H](O)C=C1CC[C@@H]1[C@@H]2CC[C@]2(C)C(c3ccc(=O)oc3)CC[C@]12O (some centres not stated),GI50,[5],116000 nM (inactive)
same,GI50,[9],13.6 nM (active)
same,GI50,[11],119 µM (inactive)
C=C1C(=O)OC2C1CC1OC2C(C)CCC/C(C)=C\CCC1(C)O (configuration not stated),GI50,[5],8050 nM (inactive)
same,GI50,[9],10900 nM (inactive)
same,GI50,[11],9.66 µM (inactive)
CCN(CC)CCCNc1ncc(C)c2[nH]c3ccncc3c12,GI50,[5],479 nM (active)
same,GI50,[9],5560 nM (inactive)
same,GI50,[11],76.9 µM (inactive)
COc1ccc(C(=O)/C(Br)=C/C(=O)O)cc1,GI50,[5],11700 nM (inactive)
same,GI50,[9],6000 nM (inactive)
same,GI50,[11],17.7 µM (inactive)
Cc1ccc(S(=O)(=O)Nc2ccc3c(c2)C(=O)N([C@H](C)CO)C[C@H](C)[C@H](CN(C)S(=O)(=O)c2ccccc2)O3)cc1,AC50,[22],13.3 µM (active)
C[C@@H]1CN([C@H](C)CO)C(=O)Cc2cc(NC(=O)Nc3ccc(C(F)(F)F)cc3)ccc2O[C@H]1CN(C)CC1CCCCC1,AC50,[22],3.27 µM (active)
COc1ccc(CN(C)C[C@H]2Oc3ccc(NS(=O)(=O)c4ccc(Cl)cc4)cc3CC(=O)N([C@H](C)CO)C[C@H]2C)cc1,AC50,[22],4.65 µM (active)
C[C@H](CO)N1C[C@H](C)[C@H](CN(C)Cc2ccc(-c3ccccc3)cc2)Oc2ccc(NC(=O)C3CCCCC3)cc2CC1=O,AC50,[22],2.26 µM (active)
C[C@H](CO)N1C[C@H](C)[C@H](CN(C)S(=O)(=O)c2ccc(Cl)cc2)Oc2ccc(NC(=O)Nc3ccc(C(F)(F)F)cc3)cc2CC1=O,AC50,[22],3.91 µM (active)
C[C@@H]1CN([C@@H](C)CO)C(=O)Cc2cc(NC(=O)C3CC3)ccc2O[C@@H]1CN(C)Cc1ccc(C(=O)Nc2ccccc2N)cc1,AC50,[22],3.26 µM (active)
CC(C)c1cc(C(=O)NCCc2cccs2)c(N)s1,EC50,[13],> 29.9 µM (inactive)
same,IC50,[14],> 29.9 µM (inactive)
COc1cc(C2c3cc4c(cc3[C@@H](Nc3cnc5ccccc5c3)C3COC(=O)[C@H]23)OCO4)cc(OC)c1O (some centres not stated),GI50,[5],< 10 nM (active)
same,GI50,[9],26.9 nM (active)
same,GI50,[11],0.182 µM (active)
Cc1nn(-c2ccc(Br)cc2)c(O)c1/C=N/c1ccc(S(=O)(=O)Nc2nccs2)cc1,IC50,[2],6 µM (active)
NCCCNc1ccc2c3c(nn2CCNCCO)-c2c(O)ccc(O)c2C(=O)c13,GI50,[5],146 nM (active)
same,GI50,[9],167 nM (active)
same,GI50,[11],1.21 µM (inactive)
COc1cccc(N2C(N)=NC(N)=NC2(C)C)c1,EC50,[6],> 150 µM (not active)
same,EC50,[7],> 150 µM (not active)
same,EC50,[18],> 133 µM (inactive)
same,EC50,[8],12.6 µM (active)
same,EC50,[10],5.99 µM (inconclusive)
same,EC50,[23],355 nM (active)
same,EC50,[24],1.42 µM (active)
